Test results: patent publication US20200316091A1, “METHOD FOR PROVIDING CONTRACEPTION” (LABORATOIRE HRA-PHARMA, priority 2019, published 2020)

Experiments:
[1] = tested on: ovarian activity and ovulation in women; assay: Prospective, randomized, parallel-group clinical study of ovarian activity after ellaOne taken after three missed COC pills; assay type: in vivo; details: for ovulation with risk of pregnancy: Arm 1, COC resumed same day as UPA 30 mg, any time of experimental cycle, N=26
Protocol: To determine the effect on ovarian activity and ovulation, of waiting five days before re-starting combined oral contraception (COC), or restarting immediately, having taken ulipristal acetate (UPA) for emergency contraception (EC) after missing three COC pills.
Women were enrolled for three cycles of COC use in a 21/7 regimen. In cycle 3 all women omitted COC pills for three consecutive days (days 5, 6, 7) and on day 8 took UPA-EC (30 mg). Half the women restarted their COC pills that same day while the remainder waiting for five days before restarting. Transvaginal ultrasound (TVUS) and blood sampling for estrogen and progesterone (E and P) was undertaken in all women on days 4, 8, 11, 13, 15, 18, 22 and 26. If a follicle of >13 mm diameter was seen, TVUS and blood sampling were performed daily until a post-ovulatory follicle was seen.
Women aged 18-30, weighing ≤30 kg/m^2 participated in the study during use of three consecutive packets of COCP. Women with contraindications to the COC or with conditions associated with anovulation (e.g. polycystic ovarian syndrome), and women who were breastfeeding or using any other hormonal contraception or an intrauterine device (IUD) were excluded. Screening was undertaken during cycle 1. Throughout the study women kept a daily diary of pill intake and vaginal bleeding. All women were instructed to take their pills at the same time every evening and to follow standard rules during the first two cycles of pill use for missed pills or for vomiting after taking a pill. The duration of COC intake in cycle 1 was adjusted (to no less than 14 and no more than 21 pills) to allow the first day of cycle 2 (baseline cycle—BSL) to fall on a weekday. After a seven-day hormone free interval (HFI) all women switched to the study COC containing 30 μg ethinyl estradiol/150 μg levonorgestrel with seven placebo tablets. Cycle three (Experimental cycle—EXP), started after a seven-day HFI at the end of BSL. After transvaginal ultrasound (TVUS) on day 1 of pill intake women were randomized so that an equal number of women with ovarian follicles of diameter ≤10 mm, or >10 mm and ≤13 mm or >13 mm were allocated to one of two study arms. After 4 days of COC, all women deliberately missed their COC pill on three consecutive days (5, 6, 7) and on the morning of day 8 all took a single 30 mg tablet of ellaOne® (ulipristal acetate 30 mg). Women in arm 1 of the study (immediate re-start) resumed daily COC intake that evening (D8) while those in arm 2 waited 5 days, re-starting their OC pill on the evening of D13 (delayed re-start). Once restarted, the COCP was continued until the packet was finished. A high sensitivity urinary pregnancy test was undertaken on day 1 of BSL and EXP and at the final study visit one or two days after the HFI following the end of the pill pack. Adverse event information was collected at every visit and blood sampling for haemoglobin and liver function was performed four times during the study.
An ovarian activity score developed from the Hoogland score (Hoogland and Skouby 1993, Contraception, 1993. 47(6): p. 583-90). The ovary was considered quiescent (OSq) if estradiol concentration was ≤0.1 nmol/L and progesterone ≤5 nmol/L even if a follicle of >13 mm was present. […] Ovulation was considered at risk of pregnancy (OSp) if there was a postovulatory image on TVUS and progesterone concentrations were >30 nmol/L on one occasion or between 10-30 nmol/L on two consecutive occasions.
The proportion of women who were at risk of pregnancy (OSp) at any time during the experimental cycle, including those who ovulated within the five days following ellaOne® intake, was estimated and the exact (Clopper-Pearson) two-sided 95% confidence interval was provided for each arm. The difference between the two arms was tested through an exact without stratum adjustment due to insufficient number of women in the self-weighted strata. […]

ovulation in women = details: COC started two days after ulipristal acetate intake; cited from earlier work
[2] = Arm 1 immediate COCP re-start (D8), experimental cycle D 1
[3] = Arm 1 immediate COCP re-start (D8), experimental cycle D 4
[4] = Arm 1 immediate COCP re-start (D8), experimental cycle D 8
[5] = Arm 1 immediate COCP re-start (D8), experimental cycle D 11
[6] = Arm 1 immediate COCP re-start (D8), experimental cycle D 13
[7] = Arm 1 immediate COCP re-start (D8), experimental cycle D 15
[8] = Arm 1 immediate COCP re-start (D8), experimental cycle D 18
[9] = Arm 1 immediate COCP re-start (D8), experimental cycle D 22
[10] = Arm 1 immediate COCP re-start (D8), experimental cycle D 26
[11] = Arm 2 delayed COCP re-start (D13), experimental cycle D 1
[12] = Arm 2 delayed COCP re-start (D13), experimental cycle D 4
[13] = Arm 2 delayed COCP re-start (D13), experimental cycle D 8
[14] = Arm 2 delayed COCP re-start (D13), experimental cycle D 11
[15] = Arm 2 delayed COCP re-start (D13), experimental cycle D 13
[16] = Arm 2 delayed COCP re-start (D13), experimental cycle D 15
[17] = Arm 2 delayed COCP re-start (D13), experimental cycle D 18
[18] = Arm 2 delayed COCP re-start (D13), experimental cycle D 22
[19] = Arm 2 delayed COCP re-start (D13), experimental cycle D 26

## CC(=O)O[C@]1(C(C)=O)CC[C@H]2[C@@H]3CCC4=CC(=O)CCC4=C3[C@@H](c3ccc(N(C)C)cc3)C[C@@]21C [ellaOne, 17α-acetoxy-11β-[4-N,N-dimethylamino-phenyl]-19-norpregna-4,9-diene-3,20-dione]
[1]; listed as Ella
  ovulation with risk of pregnancy: no ovulation at risk of pregnancy occurred
[1]; listed as Ellaone
  ovulation with risk of pregnancy: no woman
[1]; Arm 1, immediate COC re-start, experimental cycle
  number of women with ovarian activity without risk of pregnancy (OSa): one
[1]; [2]
  OSa (ovarian activity not at risk of pregnancy), women with status/women monitored: 0/26
  OSp (ovulation at risk of pregnancy), women with status/women monitored: 0/26
  OSq (ovary quiescent), women with status/women monitored: 26/26
[1]; [3]
  OSa (ovarian activity not at risk of pregnancy), women with status/women monitored: 1/26
  OSp (ovulation at risk of pregnancy), women with status/women monitored: 0/26
  OSq (ovary quiescent), women with status/women monitored: 25/26
[1]; [4]
  OSa (ovarian activity not at risk of pregnancy), women with status/women monitored: 2/26
  OSp (ovulation at risk of pregnancy), women with status/women monitored: 0/26
  OSq (ovary quiescent), women with status/women monitored: 24/26
[1]; [5]
  OSa (ovarian activity not at risk of pregnancy), women with status/women monitored: 1/26
  OSp (ovulation at risk of pregnancy), women with status/women monitored: 0/26
  OSq (ovary quiescent), women with status/women monitored: 25/26
[1]; [6]
  OSa (ovarian activity not at risk of pregnancy), women with status/women monitored: 1/26
  OSp (ovulation at risk of pregnancy), women with status/women monitored: 0/26
  OSq (ovary quiescent), women with status/women monitored: 25/26
[1]; [7]
  OSa (ovarian activity not at risk of pregnancy), women with status/women monitored: 1/26
  OSp (ovulation at risk of pregnancy), women with status/women monitored: 0/26
  OSq (ovary quiescent), women with status/women monitored: 25/26
[1]; [8]
  OSa (ovarian activity not at risk of pregnancy), women with status/women monitored: 1/26
  OSp (ovulation at risk of pregnancy), women with status/women monitored: 0/26
  OSq (ovary quiescent), women with status/women monitored: 25/26
[1]; [9]
  OSa (ovarian activity not at risk of pregnancy), women with status/women monitored: 1/26
  OSp (ovulation at risk of pregnancy), women with status/women monitored: 0/26
  OSq (ovary quiescent), women with status/women monitored: 25/26
[1]; [10]
  OSa (ovarian activity not at risk of pregnancy), women with status/women monitored: 1/26
  OSp (ovulation at risk of pregnancy), women with status/women monitored: 0/26
  OSq (ovary quiescent), women with status/women monitored: 24/25
[1]; Arm 2, COC re-start delayed five days after UPA 30 mg, experimental cycle, CI 5.0-38.8, p=0.042 vs Arm 1
  proportion of women who ovulated with risk of pregnancy: 17.4%
[1]; Arm 2, COC re-start delayed five days, more than 5 days after UPA-EC, before end of experimental cycle, N=23
  number of women who ovulated with risk of pregnancy: Four
[1]; Arm 2, delayed COC re-start, remainder of experimental cycle
  number of women with resumption of follicle growth: Eight
[1]; [11]
  OSa (ovarian activity not at risk of pregnancy), women with status/women monitored: 1/23
  OSp (ovulation at risk of pregnancy), women with status/women monitored: 0/23
  OSq (ovary quiescent), women with status/women monitored: 22/23
[1]; [12]
  OSa (ovarian activity not at risk of pregnancy), women with status/women monitored: 3/23
  OSp (ovulation at risk of pregnancy), women with status/women monitored: 0/23
  OSq (ovary quiescent), women with status/women monitored: 20/23
[1]; [13]
  OSa (ovarian activity not at risk of pregnancy), women with status/women monitored: 4/23
  OSp (ovulation at risk of pregnancy), women with status/women monitored: 0/23
  OSq (ovary quiescent), women with status/women monitored: 19/23
[1]; [14]
  OSa (ovarian activity not at risk of pregnancy), women with status/women monitored: 6/23
  OSp (ovulation at risk of pregnancy), women with status/women monitored: 0/23
  OSq (ovary quiescent), women with status/women monitored: 17/23
[1]; [15]
  OSa (ovarian activity not at risk of pregnancy), women with status/women monitored: 5/22
  OSp (ovulation at risk of pregnancy), women with status/women monitored: 0/22
  OSq (ovary quiescent), women with status/women monitored: 17/22
[1]; [16]
  OSa (ovarian activity not at risk of pregnancy), women with status/women monitored: 7/23
  OSp (ovulation at risk of pregnancy), women with status/women monitored: 0/23
  OSq (ovary quiescent), women with status/women monitored: 16/23
[1]; [17]
  OSa (ovarian activity not at risk of pregnancy), women with status/women monitored: 8/23
  OSp (ovulation at risk of pregnancy), women with status/women monitored: 1/23
  OSq (ovary quiescent), women with status/women monitored: 14/23
[1]; [18]
  OSa (ovarian activity not at risk of pregnancy), women with status/women monitored: 2/23
  OSp (ovulation at risk of pregnancy), women with status/women monitored: 4/23
  OSq (ovary quiescent), women with status/women monitored: 17/23
[1]; [19]
  OSa (ovarian activity not at risk of pregnancy), women with status/women monitored: 4/23
  OSp (ovulation at risk of pregnancy), women with status/women monitored: 4/23
  OSq (ovary quiescent), women with status/women monitored: 15/23
[1]; COC resumed the same day as EllaOne 30 mg
  interference between the COC and EllaOne: no interference
Ovulation in women
  effect of starting COC on efficacy of ulipristal acetate to inhibit or delay ovulation: significantly impairs efficacy
